The text below walks through data of a melting point compilation (Tetko et al.; mined from patent text by program, amines drawn as free bases though some values may be those of a salt).

Structures are written as SMILES.

For orientation: melting point means the temperature of the solid-liquid transition.

In turn, `CCc1cccc(-n2ncc(C(=O)O)c2C(N)=O)c1` returned a melting point of 176 to 178 °C.

The compound `CC(=O)NC1(c2ccc(CN3CCN(c4ccc(F)cc4)CC3)cc2)CC1` returned a melting point of 124 to 126 °C.

`CC(C)c1cc(C(C)C)c(S(=O)(=O)n2cc3c4c(cccc42)C(=O)CC3)c(C(C)C)c1` gave a melting point of 124 to 130 °C.

In turn, `Nc1ccccc1Sc1ccc([N+](=O)[O-])cc1[N+](=O)[O-]` had a melting point of 151 to 152 °C.

With `Cc1ccnc(-c2nc(=O)c3ccc(Cl)cc3s2)c1`, the melting point was 246 to 247 °C.

Turning to `CCCC1=C(C(=O)OCC)C(c2ccccc2OC(C)C)c2c[nH]nc2N1` (stereo unspecified), the melting point came out at 210 °C.

As for `O=c1[nH]c2cc(Cl)ccc2c(O)c1-c1cccc(F)c1`, the melting point is above 350 °C.

Compound `O=Cc1ccc(N(c2ccccc2)c2ccccc2)cc1` yielded a melting point of 129 to 130 °C.

`COc1ccc(C(=O)Nc2ccccc2CCC2CCCCN2C)cc1` (stereo unspecified) displayed a melting point of 127 to 128 °C.

On to `C=CCOc1ccc2c(C)cc(=O)oc2c1C(=O)C=Cc1ccccc1`, for which the melting point was 136 to 139 °C.

In turn, `CCCC(C(N)=O)n1cc(C)c(-c2ccccc2)n1` (stereo unspecified) gave a melting point of 116 to 118 °C.

`O=C(c1cc(C(F)(F)F)cc(C(F)(F)F)c1)N1CCC2(CC1)C(=O)NCN2c1ccccc1` gave a melting point of 251 °C.

Compound `CC(=O)N(c1cc2occc(=O)c2cc1Oc1ccc(F)cc1F)S(C)(=O)=O` returned a melting point of 176 to 178 °C.

Compound `C#Cc1cc(F)c(-n2c(=O)cc(C(F)(F)F)n(C)c2=O)cc1OCC` gave a melting point of 140 °C.

As for `CC(C)Nc1nc(N)c(C(=O)N=CNNS(=O)(=O)N(C)C)nc1Cl`, the melting point worked out at 172 °C.

As for `CC(C(SC(=S)N(C)C)c1ccccc1)[N+](=O)[O-]` (stereo unspecified), the melting point is 92 to 94 °C.

As for `CC(=O)Nc1c(C(=O)c2cccc(C#N)c2)[nH]c2cc(Cl)ccc12`, the melting point lay within 185 to 187 °C.

The compound `Cc1csc(C#CCCn2nc3ccccc3n2)n1` registered a melting point of 78 to 80 °C.

In turn, `CCCCC[C@@H](O)C=C[C@@H]1[C@@H](CC(=O)O)[C@@H](O)C[C@H]1O` showed a melting point of 105 to 107 °C.

The compound `CCCc1nc2c(N)nc(C)c(C)c2n1CCCCCS(=O)(=O)c1ccc(F)cc1` displayed a melting point of 130 to 132 °C.

Compound `CC(=O)Nc1cnc(-c2cc(Cl)cc(Cl)c2Cl)c(NC(=O)C(C)C)n1` gave a melting point of 230 to 232 °C.

Consider `COc1cc(OC)c2c(c1)Oc1cc(Br)ccc1CC2=O`, for which the melting point was 95 to 103 °C.

Regarding `CC(C)CCCC(C)C1CCC2C3CC=C4CC(OS(C)(=O)=O)CCC4(C)C3CCC12C` (stereo unspecified), the melting point is 119 to 120 °C.

`Cc1ccc(C(=O)CC(=O)C(F)F)cc1Cl` gave a melting point of 40 to 41 °C.

`COC(=O)CCC(=O)c1cc(NC(C)=O)ccc1O`: the melting point was 145 to 147 °C.

The compound `CC1c2ccccc2Nc2nccn21` (stereo unspecified) had a melting point of 171 to 172 °C.

As for `Cc1nc(N2CCN(CC3CC3)C2=O)sc1C(=O)NCc1ccccn1`, the melting point was in the range of 148 to 151 °C.

With `CN1CCc2c([nH]c(Br)c2Br)C(c2ccccc2)C1` (stereo unspecified), the melting point was in the range of 136 to 137 °C.

Turning to `CCOC(=O)c1cn(CC)c2nc(N3CCCC3)ncc2c1=O`, the melting point was found to be 202 °C.

In turn, `Cc1ccc(NC(=O)Nc2cnc3ccc(Cl)cc3c2-c2ccccc2)c(C)c1` had a melting point of 230 to 231 °C.

`C(=C1/CCCc2ccccc21)/c1cnc[nH]1`: the melting point was 136 to 138 °C.

In the case of `N#Cc1cnn(-c2c(Cl)cc(C(F)(F)F)cc2Cl)c1N1CCC1=O`, the melting point lay within 162 to 164 °C.

Turning to `Cc1oc(-c2ccccc2)nc1COc1ccc(CCc2nnn[nH]2)cc1`, the melting point lay in the range of 203 to 204 °C.

`O=c1[nH]c2sccc2c(=O)n1CCN1CCN(c2ccccc2Cl)CC1` came in with a melting point of 216 to 217 °C.

In turn, `C/C(=C\COC(=O)c1ccccc1)CCc1c(C)c(O)c(C)c(C)c1O` displayed a melting point of 112 to 114 °C.

Take `O=C1CCC(N2C(=O)c3cccc(Nc4ccc5c(c4)OCO5)c3C2=O)C(=O)N1` (stereo unspecified): the melting point is above 260 °C.

For `CCCCc1nc(Cl)c(CO)n1Cc1ccc(-c2ccccc2-c2nnnn2-c2ccc([N+](=O)[O-])cc2)cc1`, the melting point was in the range of 182 to 186 °C.

`CCN(CC)C(=O)/C=C/C(C)Sc1nc(N)cc(Cl)n1` (stereo unspecified) yielded a melting point of 152 to 153 °C.

In turn, `CSC(=NCCSCc1ccc(CN(C)C)o1)NC#N` had a melting point of 78 to 79 °C.

As to `COc1ccc2c3c1OC1CCCC4(O)C(C2)N(C(=O)C2CCC2)CCC314` (stereo unspecified), the melting point was 140 °C.

`CCCc1nn(C)c2c(=O)n(CCOc3ccc(OC(C)(C)C(=O)O)cc3)c(CC)nc12` returned a melting point of 108 to 110 °C.

`CCC1CCC2(C)C(=CCC3C4CCC(=O)C4(C)CCC32)C1` (stereo unspecified) displayed a melting point of 73 to 75 °C.

In turn, `CCOC(=O)c1cnnn1C[C@@H]1CN(c2ccc(N3CCC(=CC#N)CC3)c(F)c2)C(=O)O1` displayed a melting point of 70 to 72 °C.

`COc1ccccc1NC(C(N)=O)c1c(Cl)cccc1Cl` (stereo unspecified): the melting point turned out to be 192 °C.

With `O=C1CSCC(=O)C1C(=O)Nc1ccc(Cl)c(C(F)(F)F)c1`, the melting point fell in the range of 108 to 110 °C.

Consider `CCOC(=O)C(C)(C)OC(=O)c1cc(-n2c(=O)cc(C(F)(F)C(F)(F)F)[nH]c2=O)ccc1Cl`, for which the melting point is 141 to 143 °C.

As to `COc1cccc([C@H]2O[C@H](CC(=O)NCCCOc3cccc(C(=O)O)c3)C(=O)N(CC(C)(C)CO)c3ccc(Cl)cc32)c1OC`, the melting point fell in the range of 132 to 134 °C.

With `O=C1CCC(c2ccc(F)cc2)CC1`, the melting point fell in the range of 104 to 106 °C.

Compound `Cc1cc(C#CC2CC2)cc(C)c1Oc1ccc([N+](=O)[O-])c(Nc2ccc(C#N)cc2)n1` registered a melting point of 188 to 192 °C.

Compound `FC(F)(F)c1cc(Nc2ccc3[nH]ccc3c2)nc(-c2cccnc2)n1` yielded a melting point of 142 to 143 °C.

Compound `O=CC(Nc1ccc2c(c1)OCC(=O)N2)N1CCC(Cc2ccccc2)CC1` (stereo unspecified) yielded a melting point of 172 to 175 °C.

`N#Cc1cc(=O)n(CCc2ccccc2)s1`: the melting point was 228 °C.

Take `CSc1ccc(-c2nc(SC)c(C#N)c(=O)n2-c2ccc(Br)cc2)cc1`: the melting point lay within 213 to 215 °C.

Compound `N#Cc1ccc(-c2ccc(C#N)cc2-c2nc3ccccc3[nH]2)c(-c2nc3ccccc3[nH]2)c1` came in with a melting point of 347 to 349 °C.

The compound `CCOC(=O)CS(=O)CCSc1cc(C(C)(C)C)c(O)c(C(C)(C)C)c1` (stereo unspecified) displayed a melting point of 110 °C.

`CC(C)(C)OC(=O)N1CCC(Nc2nccc(-c3c(-c4ccc(F)cc4)nc4occn34)n2)CC1` showed a melting point of 175 °C.

As to `CC(=O)c1ccc(OCCCCl)cc1O`, the melting point stood at 74 °C.

`COc1cc(C(=O)NS(=O)(=O)c2ccccc2Br)ccc1Cc1cccc2ccc(CCCCC(=O)N(C)C)cc12` returned a melting point of 91 to 97 °C.

Consider `CCCS(=O)c1ccc(-c2coc3ccc(-c4nnc(C)o4)cc23)cc1` (stereo unspecified), for which the melting point lay in the range of 140 to 141 °C.

Regarding `C=CS(=O)(=O)c1cc2c(Nc3cccc(Br)c3)ncnc2cn1`, the melting point is 214 to 217 °C.

`CCOC(=O)C(Cc1ccccc1)NC(=O)COc1ccc(C2=NNC(=O)NC2)cc1C` (stereo unspecified) returned a melting point of 148 to 150 °C.

Turning to `CCOC(=O)c1c(CN2CCOCC2)nc2cc(OC)c(OC)cc2c1-c1ccccc1OC`, the melting point is 153 to 154 °C.

Turning to `N#Cc1c(-c2ccc(Cl)cc2)c(-c2ccc(Cl)cc2)n[nH]c1=O`, the melting point lay within 271 to 272 °C.

Take `COc1ccc(CNC(=NC#N)Nc2ccc(C3=NNC(=O)CC3C)cc2)cc1` (stereo unspecified): the melting point is 231 to 233 °C.

In turn, `OC(c1ccccn1)c1cc2ccncc2[nH]1` (stereo unspecified) had a melting point of 166 to 169 °C.

In the case of `COC(=O)COc1c(C)cc(SCc2ccc(-c3ccc(C(F)(F)F)cn3)cc2)c2c1CCO2`, the melting point is 94 to 95 °C.

`O=C(O)CCC(Cc1ccccc1Cl)(C(=O)C=Cc1c(Cl)cccc1Cl)c1ccccc1` (stereo unspecified) gave a melting point of 140 to 143 °C.

Compound `CCCC(CNc1cc(Cl)ccc1C(=O)O)C(=O)O` (stereo unspecified) gave a melting point of 206 °C.

`CN1CC2c3cccn3Cc3ccc(Cl)cc3N2C(=O)C1=O` (stereo unspecified): the melting point stood at 203 °C.

Take `OC[C@@H]1CCCN1c1nc2ccccc2s1`: the melting point was found to be 110 °C.

Compound `CC1C(=O)c2c(cc(OCC(=O)O)c(Cl)c2Cl)C1C` (stereo unspecified) displayed a melting point of 174 to 176 °C.

`CCCCCCCCCCCCCCOc1ccc(CN(C(=O)NC)c2cccc(COC(=O)NC)c2)cc1` gave a melting point of 107 to 109 °C.

Regarding `CC(=O)Nc1ccc2c(c1)C(=O)c1cc(NC(C)=O)ccc1C2=O`, the melting point came out at 340 °C.

`CC(C)Oc1ccc(CCCOc2cc(CCC(=O)O)n(-c3ccccc3)n2)c(Oc2ccc(Cl)cc2Cl)n1` returned a melting point of 60 to 62 °C.

Compound `CC(C)(C)c1cc(SCCOC(=O)c2cc(C(C)(C)C)c(OC(=O)c3cc(C(C)(C)C)c(O)c(C(C)(C)C)c3)c(C(C)(C)C)c2)cc(C(C)(C)C)c1O` registered a melting point of 168 to 170 °C.

Compound `CC(C)Oc1c(F)c(F)cc2c(=O)c(C(=O)O)cn(-c3cc(N)c(F)cc3F)c12` came in with a melting point of 217 to 222 °C.

The compound `COc1ccc(C(C)(CC(C)C)C(=O)NC2CCCCCCCCCCNC2=O)c(S)c1` (stereo unspecified) returned a melting point of 131 to 136 °C.

For the compound `COc1cc(N)c(Cl)cc1-c1nn(C2CCN(CCc3ccccc3)CC2)c(=O)o1`, the melting point was found to be 184 °C.

The compound `CC(=O)OC1CSC(Oc2cncc(-c3ccc(F)c(C)c3)c2)C(OC(C)=O)C1OC(C)=O` (stereo unspecified) came in with a melting point of 161 °C.

In turn, `CC(=O)CCn1[nH]c(=O)c2ccccc2c1=O` gave a melting point of 152 to 153 °C.

`Cc1c(C)c2c(c(C)c1O)CCC(C)(C#Cc1cccc(C(F)(F)F)c1)O2` (stereo unspecified) returned a melting point of 81 to 83 °C.

Consider `OC(CNCCC1c2ccccc2COc2ccccc21)COc1ccccc1` (stereo unspecified), for which the melting point was in the range of 136 to 138 °C.

`Cc1ccc(N2N=C3c4cc(OCCCN(C)C)ccc4CCC3CC2=O)cc1` (stereo unspecified) showed a melting point of 159 to 162 °C.

Compound `NS(=O)(=O)c1cc2nc(O)c(O)nc2c2ccccc12` gave a melting point above 300 °C.

Compound `COC(=O)c1cccc2nc(N)sc12` showed a melting point of 232 to 233 °C.

`CCCNC(=O)CCn1c(C)nc2c(N)nc3ccccc3c21` came in with a melting point of 188 to 189 °C.
